In paper PMC8689225, “Cardiac ryanodine receptor N-terminal region biosensors identify novel inhibitors via FRET-based high-throughput screening” (The Journal of Biological Chemistry, 2021):

Biological target: T1, NTR of mouse RyR2 (Mus musculus, UniProt E9Q401)
T1 construct: The NTR of mouse RyR2 (residues 1–547) was cloned and expressed as previously described; made in house; host or cells: Escherichia coli Rosetta (DE3) pLacI
T1 sequence (E9Q401 1-547): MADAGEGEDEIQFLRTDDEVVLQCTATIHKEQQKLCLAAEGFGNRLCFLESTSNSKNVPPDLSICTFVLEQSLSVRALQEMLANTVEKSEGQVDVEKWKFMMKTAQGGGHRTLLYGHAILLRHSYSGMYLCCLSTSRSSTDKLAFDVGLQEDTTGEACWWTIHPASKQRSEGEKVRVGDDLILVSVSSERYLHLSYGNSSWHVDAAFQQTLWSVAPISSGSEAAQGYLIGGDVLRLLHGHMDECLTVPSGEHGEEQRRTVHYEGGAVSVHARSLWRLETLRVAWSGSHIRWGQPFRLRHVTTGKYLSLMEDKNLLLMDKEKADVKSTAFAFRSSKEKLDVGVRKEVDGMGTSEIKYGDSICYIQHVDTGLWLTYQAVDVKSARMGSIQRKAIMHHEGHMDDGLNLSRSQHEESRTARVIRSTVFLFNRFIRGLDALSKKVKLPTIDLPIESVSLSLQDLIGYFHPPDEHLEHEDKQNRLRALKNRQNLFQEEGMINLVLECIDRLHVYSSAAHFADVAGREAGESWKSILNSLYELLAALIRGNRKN
Test: Surface plasmon resonance with isolated NTR (His-MBP tag)
Assay type: binding
Method: The SPR experiments were performed using a BIACORE S200 (GE Healthcare) equipped with a NTA sensor chip. NTR with His and MBP tags (>90% pure based on SDS-PAGE) was immobilized using affinity of the His tag to the sensor surface. The surfaces of the sensor chip were activated with 0.5 mM Ni^2+ solution at a flow rate of 10 μl/min. The NTR at a concentration of 30 μg/ml in 10 mM HEPES, 150 mM KCl, pH 7.4, was immobilized on flow cell 2; flow cell 1 was left blank to serve as a reference surface. To collect kinetic binding data, the hits in the running buffer (10 mM HEPES, 150 mM NaCl, 0.05% P20, pH 7.4, 1% DMSO) were injected over the two flow cells at concentrations of 1.5625, 3.125, 6.25, 12.5, 25, 50, and 100 μM at a flow rate of 30 μl/min and at a temperature of 25 °C. The complex was allowed to associate and dissociate for 60 and 60 s, respectively. The surfaces were regenerated with a 120 s injection of 350 mM EDTA. Data were collected at a rate of 1 Hz. The data were fit using the global data analysis option available within Biacore S200 Evaluation 1.0 software.

[1] = single-cycle kinetics, global analysis

CC(=O)O[C@H]1C[C@@]2(C)[C@@H](C[C@@H](O)[C@H]3[C@@]4(C)CC[C@@H](O)[C@@H](C)[C@@H]4CC[C@@]32C)/C1=C(\CCC=C(C)C)C(=O)O [FA, (2Z)-2-[(3R,4S,5S,8S,9S,10S,11R,13R,14S,16S)-16-acetyloxy-3,11-dihydroxy-4,8,10,14-tetramethyl-2,3,4,5,6,7,9,11,12,13,15,16-dodecahydro-1H-cyclopenta[a]phenanthren-17-ylidene]-6-methylhept-5-enoic acid]
KD (SPR) (NTR with His-MBP tag): low micromolar
KD (SPR), another component of heterogenous model fit [1]: nanomolar
KD (SPR), one component of heterogenous model fit [1]: micromolar
